Source: ChEMBL document CHEMBL1201862, “PubChem BioAssay data set” (2004)
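All cell lines were grown in 96-well plates and treated with compound for 48 hours. Here, GI50 denotes the concentration required for 50% inhibition of growth.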 The source made the active and inactive calls. No stated cut-off is given here; in the data, active = GI50 up to about 1.1 µM and inactive = higher.

What was measured:
Experiment in all cases: NCI-60 cell line screen, 48 h
[1] = tested on: UACC-257
[2] = tested on: SN12C
[3] = tested on: SR
[4] = tested on: NCI-H522
[5] = tested on: A549
[6] = tested on: M14
[7] = tested on: SF-295
[8] = tested on: KM12
[9] = tested on: SK-MEL-2
[10] = tested on: HT-29
[11] = tested on: CAKI-1
[12] = tested on: RXF 393
[13] = tested on: HCT-15
[14] = tested on: NCI-H226
[15] = tested on: A498
[16] = tested on: IGROV-1
[17] = tested on: OVCAR-8
[18] = tested on: SW-620
[19] = tested on: SF-268
[20] = tested on: DU-145
[21] = tested on: NCI/ADR-RES
[22] = tested on: HCC 2998
[23] = tested on: RPMI-8226
[24] = tested on: LOX IMVI
[25] = tested on: TK-10
[26] = tested on: MDA-N
[27] = tested on: U-251
[28] = tested on: HOP-62
[29] = tested on: OVCAR-3
[30] = tested on: PC-3
[31] = tested on: T47D
[32] = tested on: UACC-62
[33] = tested on: MDA-MB-435
[34] = tested on: EKVX
[35] = tested on: Hs-578T
[36] = tested on: HCT-116
[37] = tested on: 786-0
[38] = tested on: Malme-3M
[39] = tested on: UO-31
[40] = tested on: SNB-19
[41] = tested on: SK-MEL-28
[42] = tested on: K562
[43] = tested on: OVCAR-4
[44] = tested on: ACHN
[45] = tested on: HOP-92
[46] = tested on: SK-MEL-5
[47] = tested on: MOLT-4
[48] = tested on: NCI-H460
[49] = tested on: MDA-MB-231
[50] = tested on: OVCAR-5
[51] = tested on: HL-60
[52] = tested on: NCI-H23
[53] = tested on: BT-549
[54] = tested on: SNB-75
[55] = tested on: COLO 205
[56] = tested on: MCF7
[57] = tested on: SF-539
[58] = tested on: SK-OV-3
[59] = tested on: CCRF-CEM

## Cc1cc(OCC(=O)O)c(Cl)cc1Cl
[1]
  GI50: > 100 µM (inactive)
[2]
  GI50: > 100 µM (inactive)
[3]
  GI50: > 100 µM (inactive)
[4]
  GI50: > 100 µM (inactive)
[5]
  GI50: > 100 µM (inactive)
[6]
  GI50: > 100 µM (inactive)
[7]
  GI50: > 100 µM (inactive)
[8]
  GI50: > 100 µM (inactive)
[9]
  GI50: > 100 µM (inactive)
[10]
  GI50: > 100 µM (inactive)
[11]
  GI50: > 100 µM (inactive)
[12]
  GI50: > 100 µM (inactive)
[13]
  GI50: > 100 µM
[14]
  GI50: > 100 µM (inactive)
[15]
  GI50: > 100 µM (inactive)
[16]
  GI50: > 100 µM (inactive)
[17]
  GI50: > 100 µM (inactive)
[18]
  GI50: > 100 µM (inactive)
[19]
  GI50: > 100 µM (inactive)
[20]
  GI50: > 100 µM (inactive)
[21]
  GI50: > 100 µM (inactive)
[22]
  GI50: > 100 µM (inactive)
[23]
  GI50: 81.3 µM (inactive)
[24]
  GI50: > 100 µM (inactive)
[25]
  GI50: > 100 µM (inactive)
[26]
  GI50: > 100 µM (inactive)
[27]
  GI50: > 100 µM (inactive)
[28]
  GI50: > 100 µM (inactive)
[29]
  GI50: > 100 µM (inactive)
[30]
  GI50: > 100 µM (inactive)
[31]
  GI50: > 100 µM (inactive)
[32]
  GI50: > 100 µM (inactive)
[33]
  GI50: > 100 µM (inactive)
[34]
  GI50: > 100 µM (inactive)
[35]
  GI50: > 100 µM (inactive)
[36]
  GI50: > 100 µM (inactive)
[37]
  GI50: > 100 µM (inactive)
[38]
  GI50: > 100 µM (inactive)
[39]
  GI50: > 100 µM (inactive)
[40]
  GI50: > 100 µM (inactive)
[41]
  GI50: > 100 µM (inactive)
[42]
  GI50: > 100 µM (inactive)
[43]
  GI50: > 100 µM (inactive)
[44]
  GI50: > 100 µM (inactive)
[45]
  GI50: > 100 µM (inactive)
[46]
  GI50: > 100 µM (inactive)
[47]
  GI50: > 100 µM (inactive)
[48]
  GI50: > 100 µM (inactive)
[49]
  GI50: > 100 µM (inactive)
[50]
  GI50: > 100 µM (inactive)
[51]
  GI50: > 100 µM (inactive)
[52]
  GI50: > 100 µM (inactive)
[53]
  GI50: > 100 µM (inactive)

## Cn1c(=O)c2c3ccccc3n(C)c2n(C)c1=O
[1]
  GI50: > 100 µM (inactive)
[2]
  GI50: > 100 µM (inactive)
[3]
  GI50: > 100 µM (inactive)
[4]
  GI50: > 100 µM (inactive)
[5]
  GI50: > 100 µM (inactive)
[6]
  GI50: > 100 µM (inactive)
[7]
  GI50: > 100 µM (inactive)
[8]
  GI50: > 100 µM (inactive)
[9]
  GI50: > 100 µM (inactive)
[10]
  GI50: > 100 µM (inactive)
[54]
  GI50: 1.26 µM (inactive)
[11]
  GI50: > 100 µM (inactive)
[12]
  GI50: > 100 µM (inactive)
[13]
  GI50: > 100 µM
[14]
  GI50: > 100 µM (inactive)
[15]
  GI50: > 100 µM (inactive)
[55]
  GI50: > 100 µM (inactive)
[16]
  GI50: > 100 µM (inactive)
[17]
  GI50: > 100 µM (inactive)
[18]
  GI50: > 100 µM (inactive)
[19]
  GI50: > 100 µM (inactive)
[20]
  GI50: > 100 µM (inactive)
[56]
  GI50: > 100 µM (inactive)
[21]
  GI50: > 100 µM (inactive)
[22]
  GI50: > 100 µM (inactive)
[23]
  GI50: > 100 µM (inactive)
[24]
  GI50: > 100 µM (inactive)
[25]
  GI50: > 100 µM (inactive)
[26]
  GI50: > 100 µM (inactive)
[27]
  GI50: > 100 µM (inactive)
[57]
  GI50: > 100 µM (inactive)
[28]
  GI50: > 100 µM (inactive)
[29]
  GI50: > 100 µM (inactive)
[58]
  GI50: 22.3 µM (inactive)
[31]
  GI50: > 100 µM (inactive)
[32]
  GI50: > 100 µM (inactive)
[33]
  GI50: > 100 µM (inactive)
[59]
  GI50: > 100 µM (inactive)
[34]
  GI50: > 100 µM (inactive)
[35]
  GI50: > 100 µM (inactive)
[36]
  GI50: > 100 µM (inactive)
[37]
  GI50: > 100 µM (inactive)
[38]
  GI50: > 100 µM (inactive)
[39]
  GI50: > 100 µM (inactive)
[40]
  GI50: > 100 µM (inactive)
[42]
  GI50: > 100 µM (inactive)
[43]
  GI50: > 100 µM (inactive)
[44]
  GI50: 97.9 µM (inactive)
[45]
  GI50: > 100 µM (inactive)
[46]
  GI50: > 100 µM (inactive)
[47]
  GI50: > 100 µM (inactive)
[49]
  GI50: > 100 µM (inactive)
[50]
  GI50: > 100 µM (inactive)
[51]
  GI50: > 100 µM (inactive)
[52]
  GI50: > 100 µM (inactive)
[53]
  GI50: > 100 µM (inactive)
